In US7687508B2, “Cyclic derivatives as modulators of chemokine receptor activity” (Bristol-Myers Squibb Company, priority 2006, dated 2010):

How the values were obtained:
[1] = molecular target: T1, hERG (Homo sapiens, UniProt Q12809); test: hERG flux (Tl+ flux, FLIPR) in HEK293 cells; format: cell-based; settings: HEK293 cells stably expressing hERG
T1 construct: expressed in transfected cells
Experimental: HEK293 cells stably-expressing hERG channels were grown (37° C., 5% CO2) in Dulbecco's Modified Eagle's Media supplemented with 10% Sigma fetal bovine serum, non-essential amino acids, 2 mM L-glutamine and 500 μg/ml G418, at incubator.
A 2 mM stock of BTC-AM dye (Molecular Probes, Eugene, Oreg.) was prepared in 100% DMSO and then added 1:1 to 10% (w/v) pluronic acid in DMSO on the day of assay. The dye was then diluted in hERG external EP buffer (140 mM NaCl, 4.0 mM KCl, 1.8 mM CaCl2, 1.0 mM MgCl2, 10 mM HEPES, pH 7.3 and 10 mM glucose; all buffer components obtained from Sigma Chemical). […] Cells are incubated at 21° C. for 45 minutes.
These compounds were then serially-diluted at a 1:2 ratio in DMSO in columns 1-10 and 11-20 of a 384-well plate. Assay-ready plates were generated by stamping 2.5 μl from the DMSO serially diluted plate, which was prepared on the Velocity 11 BioCel. Aqueous plates were created by adding 48 μl of EP buffer and then were diluted 30-45 minutes before the assay was read on the FLIPR. […] Final DMSO concentration in the assay is 1%. Assay-ready aqueous plates were prepared and diluted on a Cybio liquid handler.
Data collection proceeded every second for 48 seconds, and then continued every three seconds for an additional 2 minutes.
The dynamic range of the assay was determined from blanks and totals wells. The totals wells (columns 21 and 22) define maximal hERG activation for the plate (no test compound present), and the blanks wells (columns 23 and 24) define 100% hERG inhibition. […] Raw data points in each sample well were first corrected for cell/signal variation, negative control (blanks) background, and normalized to the positive controls (totals) using the online FLIPR software. Test compound concentration response curves for the hERG Tl^+ flux data were then fit using Excel Fit (ID Business Solutions Limited, Surrey, UK) with a single-site logistic equation, Y=A+((B−A)/1+((C/X)^D))) where A=maximal inhibition. Data were analyzed by fitting maximum amplitudes of change in fluorescence for Tl^+ flux for a given condition of test compound.

[2] = Parallel Artificial Membrane Permeability Assay (PAMPA); format: in vitro ADME; settings: apical and basolateral pH 7.4
Experimental: All experiments are conducted in triplicate determinations.

[3] = molecular target: T1, hERG; test: hERG patch clamp (whole-cell, HEK-293); format: cell-based; settings: for inhibition at 10000 nM: pH 7.4, 10,000 nM; for inhibition at 30000 nM: pH 7.4, 30,000 nM
[4] = molecular target: human cardiac sodium channel, SCN5A (Nav1.5) (Homo sapiens, UniProt Q14524); test: Sodium channel patch clamp (whole-cell, HEK-293); format: cell-based; settings: HEK-293 cells expressing human cardiac sodium channel SCN5A, 30,000 nM, read-out: Na+ channel patch clamp (% inhibition)
human cardiac sodium channel, SCN5A (Nav1.5), sequence (Q14524 whole entry): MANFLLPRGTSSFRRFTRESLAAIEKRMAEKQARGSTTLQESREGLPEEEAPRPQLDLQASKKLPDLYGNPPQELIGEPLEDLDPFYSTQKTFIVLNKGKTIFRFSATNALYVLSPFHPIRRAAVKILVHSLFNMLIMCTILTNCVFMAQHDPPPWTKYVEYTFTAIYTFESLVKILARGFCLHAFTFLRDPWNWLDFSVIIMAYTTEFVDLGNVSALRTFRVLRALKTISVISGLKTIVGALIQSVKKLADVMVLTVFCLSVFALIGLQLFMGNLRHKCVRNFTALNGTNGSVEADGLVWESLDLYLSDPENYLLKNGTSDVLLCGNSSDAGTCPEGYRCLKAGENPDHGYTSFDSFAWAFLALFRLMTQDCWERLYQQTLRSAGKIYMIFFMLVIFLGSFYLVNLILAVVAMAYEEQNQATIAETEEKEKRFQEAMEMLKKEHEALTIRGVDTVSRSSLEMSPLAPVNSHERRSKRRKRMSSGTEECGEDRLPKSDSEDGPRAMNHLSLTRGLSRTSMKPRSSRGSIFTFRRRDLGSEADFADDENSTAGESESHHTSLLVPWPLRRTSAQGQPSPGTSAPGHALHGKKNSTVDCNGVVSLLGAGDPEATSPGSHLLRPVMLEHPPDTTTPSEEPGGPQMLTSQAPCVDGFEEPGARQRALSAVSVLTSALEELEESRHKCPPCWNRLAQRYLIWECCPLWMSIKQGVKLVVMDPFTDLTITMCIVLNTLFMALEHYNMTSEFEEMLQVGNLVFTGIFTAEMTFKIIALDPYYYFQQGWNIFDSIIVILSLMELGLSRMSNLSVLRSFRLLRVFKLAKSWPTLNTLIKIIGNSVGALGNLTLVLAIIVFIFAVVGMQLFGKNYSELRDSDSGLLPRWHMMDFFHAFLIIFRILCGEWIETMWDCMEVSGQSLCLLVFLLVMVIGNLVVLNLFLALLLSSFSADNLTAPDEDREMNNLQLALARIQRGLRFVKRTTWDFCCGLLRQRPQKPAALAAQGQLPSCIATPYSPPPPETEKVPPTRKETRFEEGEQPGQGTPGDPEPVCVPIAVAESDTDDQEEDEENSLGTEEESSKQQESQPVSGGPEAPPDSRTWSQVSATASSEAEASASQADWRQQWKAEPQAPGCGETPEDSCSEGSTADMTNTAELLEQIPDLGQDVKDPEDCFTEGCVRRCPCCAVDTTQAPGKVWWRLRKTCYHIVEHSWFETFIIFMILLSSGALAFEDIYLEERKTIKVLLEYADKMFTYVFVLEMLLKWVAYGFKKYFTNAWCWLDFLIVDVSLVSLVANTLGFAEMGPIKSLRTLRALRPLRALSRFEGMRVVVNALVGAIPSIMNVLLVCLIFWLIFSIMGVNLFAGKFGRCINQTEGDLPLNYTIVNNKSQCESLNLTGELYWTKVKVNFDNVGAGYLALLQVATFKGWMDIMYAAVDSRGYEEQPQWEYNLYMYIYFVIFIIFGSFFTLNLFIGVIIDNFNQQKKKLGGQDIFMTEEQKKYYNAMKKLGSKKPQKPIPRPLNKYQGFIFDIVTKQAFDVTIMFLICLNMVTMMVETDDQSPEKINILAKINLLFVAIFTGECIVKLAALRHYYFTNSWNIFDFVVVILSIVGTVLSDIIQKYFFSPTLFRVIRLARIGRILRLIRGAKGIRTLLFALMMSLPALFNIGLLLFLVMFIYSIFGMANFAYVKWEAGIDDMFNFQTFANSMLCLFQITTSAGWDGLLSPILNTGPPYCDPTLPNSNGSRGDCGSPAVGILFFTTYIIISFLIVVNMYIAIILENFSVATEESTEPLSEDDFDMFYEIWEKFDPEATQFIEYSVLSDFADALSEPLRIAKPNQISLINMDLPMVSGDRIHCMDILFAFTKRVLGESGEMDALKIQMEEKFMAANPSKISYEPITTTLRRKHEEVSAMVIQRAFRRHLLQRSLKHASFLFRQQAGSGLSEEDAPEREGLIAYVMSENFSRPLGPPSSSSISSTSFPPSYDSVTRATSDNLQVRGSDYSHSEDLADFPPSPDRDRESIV
Experimental: The compound was tested at a protein-free aqueous buffer. For determining steady state inhibition, sodium currents were elicited every 5 seconds using the following voltage protocol: cells were held at a potential of −90 mV and stepped to −20 mV for 60 ms. Effects were calculated by measuring inhibition of peak current during the test pulse to −20 mV. Rate-dependence of inhibition was assessed by stimulation at frequencies of 1 Hz and 4 Hz.

[5] = molecular target: T2, human CCR2 (Homo sapiens, UniProt P41597); test: Human peripheral blood mononuclear cell binding (CCR2 binding), 125I-human MCP-1 tracer; parameters: hPBMCs were isolated from human leukopak (Biological Specialty Inc.); endogenous in cells; host or cells: human peripheral blood mononuclear cells from leukopak (Biological Specialty Inc.); settings: hPBMCs, 125I-MCP-1; figure in parentheses in the cell not copied (count of determinations); read-out: CCR2 Binding IC50
T2 sequence (P41597 1-360 isoform P41597-2): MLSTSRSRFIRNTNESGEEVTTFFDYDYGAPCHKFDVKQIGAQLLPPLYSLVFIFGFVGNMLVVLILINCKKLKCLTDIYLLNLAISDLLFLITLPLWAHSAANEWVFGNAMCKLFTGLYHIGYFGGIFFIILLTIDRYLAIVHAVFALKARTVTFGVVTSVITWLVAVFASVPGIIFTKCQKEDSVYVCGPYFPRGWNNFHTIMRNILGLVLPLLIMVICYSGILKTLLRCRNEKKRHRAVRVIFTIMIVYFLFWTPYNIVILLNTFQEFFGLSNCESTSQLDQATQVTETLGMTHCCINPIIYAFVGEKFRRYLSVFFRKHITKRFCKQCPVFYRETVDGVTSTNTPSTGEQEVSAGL
Experimental: See also: Yoshimura et al., J. Immunol. 1990, 145, 292. The human CCR2 binding assay was established with human peripheral blood mononuclear cells (hPBMCs) using ^125I-human MCP-1 as the tracer ligand. hPBMCs were isolated from human leukopak (Biological Specialty Inc.) using a standard protocol with Ficoll-Hypaque (Mediatech Cellgro). Isolated hPBMCs were washed and diluted to 1×10^7/ml in binding buffer (RPMI-1640, 0.1% BSA, 20 mM Hepes, pH 7.4). ^125I-MCP-1 (NEN/Perk Elmer) was diluted to 0.45 nM in binding buffer. The compound was diluted in binding buffer at 3-fold the final concentrations used in the binding assay. The binding assay was performed using a 96-well filter plate (Millipore). Total ^125I-MCP-1 binding was assessed as follows: to each reaction of a total volume of 150 μl were added 5×10^5 cells, 0.15 nM […], and compound such that the final concentration ranged from 0 to 100 nM. The plate was incubated at room temperature for 30 minutes followed by three washes with RPMI-1640, 0.1% BSA, 0.4 M NaCl, 20 mM Hepes, pH 7.4 using a vacuum manifold filtration (Millipore). After washing, the plate was air-dried for 60 minutes at room temperature. This was followed by adding 25 μl of Microscint 20 into each well. The plate was sealed and counted on the Trilux for 1 minute. Non-specific binding was determined in the presence of 300 nM cold MCP-1 (PeproTech Inc.). Specific 1-MCP-1 was calculated as the difference between total and non-specific binding. All conditions were tested in duplicate.

[6] = molecular target: T2, human CCR2; test: CCR2 chemotaxis (MCP-1-induced, THP-1 cells); format: cell-based; parameters: hPBMCs were isolated from human leukopak (Biological Specialty Inc.); endogenous in cells; host or cells: human peripheral blood mononuclear cells from leukopak (Biological Specialty Inc.)
Experimental: The human CCR2 chemotaxis assay was conducted with the human monocytic cell line, THP-1. THP-1 cells were first labeled with the fluorescent dye Calcein-AM in phenol red-free, BSA-free RPMI-1640 (pH 7.4) at 37° C. for 30 minutes with gentle mixing every 15 minutes. The labeled cells were then washed and re-suspended at 1×10^5/ml in chemotaxis buffer (phenol red-free RPMI-1640, 0.1% BSA, pH 7.4). The test compound was diluted in chemotaxis buffer such that the final assay concentration ranged from 0.01 nM to 1 μM. […] To perform the assay, an equal volume of test compound dilutions was mixed with an equal volume of labeled THP-1 cells (Mixture 1), and an equal volume of test compound dilutions was mixed with an equal volume of diluted MCP-1 ligand (Mixture 2). Both mixtures were incubated independently at 37° C. for 10 minutes followed by gentle mixing. MCP-1-induced chemotaxis was then measured in a chemotaxis plate (Becton Dickinson) by placing 50 μl of Mixture 1 in the top chamber and 225 μl of Mixture 2 in the bottom chamber. The plate was covered with a lid and incubated at 37° C. for 30 minutes. 30 minutes later, the plate was read on a Cytofluor. All conditions were tested in duplicate. […] The inhibition achieved by graded concentrations of test compound was calculated as a percentage of the compound-free MCP-1 control.

[7] = Single-dose pharmacokinetics in monkeys; format: in vivo; settings: male, cynomolgus monkey, plasma, dose per compound (mg/kg); for clearance: IV; for AUC: PO; for bioavailability: oral bioavailability
Source text: (1500-2000×g) to obtain plasma.

[8] = Single-dose pharmacokinetics in rats; format: in vivo; settings: male, Sprague-Dawley, plasma, rat, dose per compound (mg/kg); for AUC: PO; for clearance: IV; for bioavailability: oral bioavailability
Experimental: (1500-2000×g) to obtain plasma. […] Plasma samples, obtained by centrifugation at 4° C.

T1 sequence (Q12809 whole entry): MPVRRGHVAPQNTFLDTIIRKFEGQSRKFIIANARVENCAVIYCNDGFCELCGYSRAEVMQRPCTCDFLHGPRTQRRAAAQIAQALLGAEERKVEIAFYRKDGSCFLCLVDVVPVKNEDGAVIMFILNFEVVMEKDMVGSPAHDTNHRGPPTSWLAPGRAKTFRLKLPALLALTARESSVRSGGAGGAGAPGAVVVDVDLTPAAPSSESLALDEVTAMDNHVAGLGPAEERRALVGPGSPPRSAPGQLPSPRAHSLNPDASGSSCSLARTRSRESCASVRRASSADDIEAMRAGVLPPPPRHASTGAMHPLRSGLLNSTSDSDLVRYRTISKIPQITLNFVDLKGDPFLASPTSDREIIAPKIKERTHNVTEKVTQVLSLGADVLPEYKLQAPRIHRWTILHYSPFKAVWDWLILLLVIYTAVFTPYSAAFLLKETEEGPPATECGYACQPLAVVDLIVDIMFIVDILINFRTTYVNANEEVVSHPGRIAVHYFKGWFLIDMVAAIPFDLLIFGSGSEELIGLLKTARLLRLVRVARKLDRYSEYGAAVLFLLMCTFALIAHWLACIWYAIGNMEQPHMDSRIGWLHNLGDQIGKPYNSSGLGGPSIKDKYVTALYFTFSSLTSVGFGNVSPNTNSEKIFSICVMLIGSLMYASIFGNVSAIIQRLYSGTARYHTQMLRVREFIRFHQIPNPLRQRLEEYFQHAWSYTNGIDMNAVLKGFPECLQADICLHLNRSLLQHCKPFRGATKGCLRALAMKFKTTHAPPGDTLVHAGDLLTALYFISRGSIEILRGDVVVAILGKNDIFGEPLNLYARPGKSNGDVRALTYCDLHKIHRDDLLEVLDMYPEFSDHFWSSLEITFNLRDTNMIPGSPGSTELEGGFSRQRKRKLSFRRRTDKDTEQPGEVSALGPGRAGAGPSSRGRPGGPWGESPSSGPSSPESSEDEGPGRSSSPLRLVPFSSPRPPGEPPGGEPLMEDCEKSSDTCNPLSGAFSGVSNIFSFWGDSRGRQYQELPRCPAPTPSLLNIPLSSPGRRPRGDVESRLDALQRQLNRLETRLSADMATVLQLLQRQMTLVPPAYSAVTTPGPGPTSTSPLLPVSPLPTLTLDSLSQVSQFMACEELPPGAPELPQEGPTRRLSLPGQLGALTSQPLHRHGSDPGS

SMILES | IC50 [1] [nM] | Papp at 4 h, 100 µM [2] [×10⁻⁶ cm/s] | inhibition at 10000 nM [3] [%] | inhibition at 30000 nM [3] [%] | inhibition at 30000 nM [4] [%] | IC50 [5] [nM] | IC50 [6] [nM] | clearance [7] [mL/min/kg] | AUC [7] [µM·h] | bioavailability [7] [%] | AUC [8] [µM·h] | clearance [8] [mL/min/kg] | bioavailability [8] [%] | inhibition at 100000 nM ([3]; pH 7.4, 100,000 nM) [%]
CC(=O)N[C@@H]1C[C@H](N(C)C(C)C)CC[C@@H]1N1CC[C@H](Nc2ncnc3cnc(C(C)(C)C)nc23)C1=O [Example 1, N-((1R,2S,5R)-2-((3S)-3-((6-tert-butylpyrimido[5,4-d]pyrimidin-4-yl)amino)-2-oxo-1-pyrrolidinyl)-5-(isopropyl(methyl)amino)cyclohexyl)acetamide] | > 80000 | 18.7 | 8 | 17 | 13 | 3.34 ± 0.32 | 3.85 ± 0.36 |  |  |  |  |  |  | 
CN[C@@H]1CC[C@H](N2CC[C@H](Nc3ncnc4ccc(C(F)(F)F)cc34)C2=O)[C@H](NC(C)=O)C1 [Example 3, N-((1R,2S,5R)-5-(methylamino)-2-((3S)-2-oxo-3-((6-(trifluoromethyl)-4-quinazolinyl)amino)-1-pyrrolidinyl)cyclohexyl)acetamide] | > 80000 |  | 6 | 24 | 3 | 4.74 ± 0.58 |  | 15 | 2.05 | 91 |  |  |  | 
CC(=O)N[C@@H]1C[C@H](N(C)C)CC[C@@H]1N1CC[C@H](Nc2ncnc3ccc(C(F)(F)F)cc23)C1=O [Example 8, N-((1R,2S,5R)-5-(dimethylamino)-2-((3S)-2-oxo-3-((6-(trifluoromethyl)-4-quinazolinyl)amino)-1-pyrrolidinyl)cyclohexyl)acetamide] | > 80000 |  | 18 | 37 | 11 | 3.58 ± 0.78 | 4.09 ± 1.21 |  | 0.558 |  | 7.28 |  |  | 
CC(C)(C)N[C@@H]1CC[C@H](N2CC[C@H](NC(=O)c3ccnc(C(C)(C)C)n3)C2=O)[C@H](NS(C)(=O)=O)C1 [Example 11, 2-tert-butyl-N—((S)-1-((1S,2R,4R)-4-(tert-butylamino)-2-(methylsulfonamido)cyclohexyl)-2-oxopyrrolidin-3-yl)pyrimidine-4-carboxamide] | > 80000 | 35 |  | 15 |  | 1.91 ± 0.52 | 0.92 |  |  |  | 3.04 | 56 | 52 | 
CCC(=O)N[C@@H]1C[C@H](NC(C)(C)C)CC[C@@H]1N1CC[C@H](NC(=O)c2ccnc(C(C)(C)C)n2)C1=O [Example 12, 2-tert-butyl-N-((3S)-1-((1S,2R,4R)-4-(tert-butylamino)-2-(propionylamino)cyclohexyl)-2-oxo-3-pyrrolidinyl)-4-pyrimidinecarboxamide] | > 80000 | 23.9 | 6 | 7 |  | 4.49 ± 1.35 |  |  | 0.413 |  | 5.23 | 59 | 91 | 
CC(C)(C)N[C@@H]1CC[C@H](N2CC[C@H](Nc3ncnc4cnc(C(C)(C)C)nc34)C2=O)[C@H](NS(C)(=O)=O)C1 [Example 13, N-((1R,2S,5R)-5-(tert-butylamino)-2-((3S)-3-((6-tert-butylpyrimido[5,4-d]pyrimidin-4-yl)amino)-2-oxo-1-pyrrolidinyl)cyclohexyl)methanesulfonamide] | > 80000 | 54.1 ± 6.3 |  | 10 |  | 4.02 ± 1.31 | 0.49 |  | 0.263 |  | 10.5 | 26 | 88 | 
CO[C@@H]1CC[C@H](N2CC[C@H](Nc3ncnc4ccc(C(F)(F)F)cc34)C2=O)[C@H](CNC(C)=O)C1 [Example 15, N-(((1S,2S,5R)-5-methoxy-2-((3S)-2-oxo-3-((6-(trifluoromethyl)-4-quinazolinyl)amino)-1-pyrrolidinyl)cyclohexyl)methyl)acetamide] | > 80000 | 18.6 |  | 29 |  | 3.34 ± 0.71 | 0.92 ± 0.67 | 28 | 0.333 | 19 | 16.2 | 23 | 93 | 47
